Experimental data: US20110195979A1, “COMPOUNDS FOR THE TREATMENT AND PREVENTION OF INFLUENZA” (priority 2010, published 2011)

Tests used:
Influenza H1N1 virus = assay: Viral cytopathic effect (CPE) assay; assay type: cell-based, Influenza A (H1N1); settings: Influenza A virus, H1N1, MDCK, 72 h, read-out: CPE_EC50
Procedure: Cells and viruses. Madin-Darby canine kidney cell (MDCK) was purchased from American type culture collection (ATCC) and was maintained in minimal essential medium (MEM) containing 10% fetal bovine serum and antibiotics. Influenza A/Weiss/43 (H1N1), A/PR/8/34 (H1N1), and A/Hongkong/8/68 (H3N2) were purchased from ATCC and propagated in 10-day-old embryonated chicken eggs at 37° C. Virus was harvested 48 h after inoculation as pooled allantoic fluid. After a brief centrifugation (3,000 rpm at room temperature for 20 min) and virus titer measurement by a hemagglutination test, virus was aliquoted and stored at a −80° C. freezer.
Viral cytopathic effect (CPE) assay: To measure anti-influenza activity of compounds, MDCK cells were seeded into 96-well plates at a density of 5,000 cells per well. Next day, compounds were serially half-log diluted with Gibco SFM containing trypsin. Compounds and 50 pfu of virus were added into corresponding wells to make m.o.i at 0.01 and a final trypsin concentration of 2.5 μg/ml. The testing plates also contained medium control, cell control, virus control, and compound toxicity control. After a 3-day treatment, cell viability was measured with a MTT (3-(4,5-dimethylthiazol-2-yl)-2,5-diphenyltetrazolium bromide) method. Briefly, 20 μl of MTT diluted in culture medium was added into each wells and incubated at 37° C. for 4 hours. Reduced MTT (formazan) was extracted with acidic isopropanol and absorbance at wavelengths of 570 nm and 630 nm (OD570 and OD630) was read on a microtiter plate reader. After subtraction of background OD values, dose response curves of half-log concentration vs. percent protection were generated, on which half maximal effective concentration (EC50) and half maximal toxic concentration (CC50) were calculated.

MDCK cells = assay: in vitro; settings: dog, Cytotoxicy IC50

| Compound | EC50 (Influenza H1N1 virus) | IC50 at 3 day (MDCK cells) |
| --- | --- | --- |
| CC1(C)CC(O)CC(C)(CNc2ncccc2C(F)(F)F)C1 (stereo not drawn) [Example IIIa-5, (cis-1,5)-3,3,5-Trimethyl-5-[(3-trifluoromethyl-pyridin-2-ylamino)-methyl]-cyclohexanol] | < 159 nM | 22100 nM |
| CC1(C)CC(O)CC(C)(CNc2cc(S(N)(=O)=O)ccn2)C1 (stereo not drawn) [Example IIIa-8, 2-[((cis-1,5)-5-Hydroxy-1,3,3-trimethyl-cyclohexylmethyl)-amino]-pyridine-4-sulfonic acid amide] | 980 nM | > 100000 nM |
| CC1(C)CC(O)CC(C)(CNc2nccc(C(F)(F)F)n2)C1 (stereo not drawn) [Example IIIa-10, (cis-1,5)-3,3,5-Trimethyl-5-[(4-trifluoromethyl-pyrimidin-2-ylamino)-methyl]-cyclohexanol] | 120 nM | 47800 nM |
| COc1ccnc(NCC2(C)CC(O)CC(C)(C)C2)n1 (stereo not drawn) [Example IIIa-11, (cis-1,3)-3-[(4-Methoxy-pyrimidin-2-ylamino)-methyl]-3,5,5-trimethyl-cyclohexanol] | 1500 nM | > 50000 nM |
| Cc1cc(C)nc(NCC2(C)CC(O)CC(C)(C)C2)n1 (stereo not drawn) [Example IIIa-13, (cis-1,3)-3-[(4,6-Dimethyl-pyrimidin-2-ylamino)-methyl]-3,5,5-trimethyl-cyclohexanol] | 1370 nM | > 100000 nM |
| CC1(C)CC(O)CC(C)(CNc2cncc(Cl)n2)C1 (stereo not drawn) [Example IIIb-1, (cis-1,3)-3-[(6-Chloro-pyrazin-2-ylamino)-methyl]-3,5,5-trimethyl-cyclohexanol] | 4120 nM | > 50000 nM |
| CC1(C)CC(O)CC(C)(CNc2nc3ccccc3o2)C1 (stereo not drawn) [Example IIIc-1, (cis-1,3)-3-(Benzoxazol-2-ylaminomethyl)-3,5,5-trimethyl-cyclohexanol] | 1420 nM | 83000 nM |
| CC1(C)CC(F)(F)CC(C)(CNc2nc3ccccc3o2)C1 (stereo not drawn) [Example IIIc-2, Benzoxazol-2-yl-(3,3-difluoro-1,5,5-trimethyl-cyclohexylmethyl)-amine] | 3360 nM | 10900 nM |
| COC1CC(C)(C)CC(C)(CNc2nc3ccccc3o2)C1 (stereo not drawn) [Example IIIc-3, Benzoxazol-2-yl-((cis-1,5)-5-methoxy-1,3,3-trimethyl-cyclohexylmethyl)-amine] | 7430 nM | > 50000 nM |
| CC1(C)CC(O)CC(C)(CNc2noc3ccccc23)C1 (stereo not drawn) [Example IIId-1, (cis-1,3)-3-(Benzo[d]isoxazol-3-ylaminomethyl)-3,5,5-trimethyl-cyclohexanol] | 400 nM | > 50000 nM |
| CC1(C)CC(O)CC(C)(CNc2nccc3ccccc23)C1 (stereo not drawn) [Example IIIf-1, (cis-1,3)-3-(Isoquinolin-1-ylaminomethyl)-3,5,5-trimethyl-cyclohexanol] | 2370 nM | 43700 nM |
| COc1cccc(NCC2(C)CC(O)CC(C)(C)C2)c1 (stereo not drawn) [Example IIa-8, (cis-1,3)-3-[(3-Methoxy-phenylamino)-methyl]-3,5,5-trimethyl-cyclohexanol] | 200 nM | > 50000 nM |
| CC(C)c1cccc(NCC2(C)CC(O)CC(C)(C)C2)c1 (stereo not drawn) [Example IIa-12, (cis-1,3)-3-[(3-Isopropyl-phenylamino)-methyl]-3,5,5-trimethyl-cyclohexanol] | 90 nM | 6680 nM |
| CC1(C)CC(O)CC(C)(CNc2cc(F)cc(C(F)(F)F)c2)C1 (stereo not drawn) [Example IIa-17, (cis-1,3)-3-[(3-Fluoro-5-trifluoromethyl-phenylamino)-methyl]-3,5,5-trimethyl-cyclohexanol] | 18 nM | 3660 nM |
| Cc1cc(Cl)cc(NCC2(C)CC(O)CC(C)(C)C2)c1 (stereo not drawn) [Example IIa-18, (cis-1,3)-3-[(3-Chloro-5-methyl-phenylamino)-methyl]-3,5,5-trimethyl-cyclohexanol] | 25 nM | > 3160 nM |
| CC1(C)CC(O)CC(C)(CNc2cc(Cl)cc(Cl)c2)C1 (stereo not drawn) [Example IIa-19, (cis-1,3)-3-[(3,5-Dichloro-phenylamino)-methyl]-3,5,5-trimethyl-cyclohexanol] | 32 nM | 7190 nM |
| CC1(C)CC(O)CC(C)(CNc2cc(Br)cc(C(F)(F)F)c2)C1 (stereo not drawn) [Example IIa-21, (cis-1,3)-3-[(3-Bromo-5-trifluoromethyl-phenylamino)-methyl]-3,5,5-trimethyl-cyclohexanol] | 58 nM | > 3160 nM |

| Compound | EC50 (Influenza H1N1 virus) | IC50 at 3 day (MDCK cells) |
| --- | --- | --- |
| CC1(C)CC(O)CC(C)(CNc2cc(F)cc(C#N)c2)C1 (stereo not drawn) [Example IIa-22, 3-Fluoro-5-[((cis-1,5)-5-hydroxy-1,3,3-trimethyl-cyclohexylmethyl)-amino]-benzonitrile] | 50 nM | 23900 nM |
| CC1(C)CC(O)CC(C)(CNc2cc(C#N)cc(C(F)(F)F)c2)C1 (stereo not drawn) [Example IIa-24, 3-[((cis-1,5)-5-Hydroxy-1,3,3-trimethyl-cyclohexylmethyl)-amino]-5-trifluoromethyl-benzonitrile] | 40 nM | 13200 nM |
| CC1(C)CC(O)CC(C)(CNc2cc(C(F)(F)F)cc(C(F)(F)F)c2)C1 (stereo not drawn) [Example IIa-25, (cis-1,3)-3-[(3,5-Bis-trifluoromethyl-phenylamino)-methyl]-3,5,5-trimethyl-cyclohexanol] | 95 nM | 2830 nM |
| CC1(C)CC(O)CC(C)(CNc2ccc(Cl)c(Cl)c2)C1 (stereo not drawn) [Example IIa-27, (cis-1,3)-3-[(3,4-Dichloro-phenylamino)-methyl]-3,5,5-trimethyl-cyclohexanol] | 68 nM | 2490 nM |
| CN(CC1(C)CC(O)CC(C)(C)C1)c1cccc(Cl)c1 (stereo not drawn) [Example IIb-1, (cis-1,3)-3-{[(3-Chloro-phenyl)-methyl-amino]-methyl}-3,5,5-trimethyl-cyclohexanol] | 600 nM | 7580 nM |
| CC1(C)CCCC(C)(CNc2cc(F)cc(C(F)(F)F)c2)C1 (stereo not drawn) [Example IIc-1, (3-Fluoro-5-trifluoromethyl-phenyl)-(1,3,3-trimethyl-cyclohexylmethyl)-amine] | 237 nM | 2320 nM |
| CC(=O)OC1CC(C)(C)CC(C)(CNc2ccccc2)C1 (stereo not drawn) [Example IId-1, Acetic acid (cis-1,5)-3,3,5-trimethyl-5-phenylaminomethyl-cyclohexyl ester] | 492 nM | 64400 nM |
| CC1(C)CC(F)(F)CC(C)(CNc2cc(F)cc(C(F)(F)F)c2)C1 (stereo not drawn) [Example IIe-1, (3,3-Difluoro-1,5,5-trimethyl-cyclohexylmethyl)-(3-fluoro-5-trifluoromethyl-phenyl)-amine] | 264 nM | > 3160 nM |
| COC1CC(C)(C)CC(C)(CNc2cc(F)cc(C(F)(F)F)c2)C1 (stereo not drawn) [Example IIf-1, (3-Fluoro-5-trifluoromethyl-phenyl)-((cis-1,5)-5-methoxy-1,3,3-trimethyl-cyclohexylmethyl)-amine] | 129 nM | > 3160 nM |
| CC1(C)CC(C)(O)CC(C)(CNc2cc(F)cc(C(F)(F)F)c2)C1 (stereo not drawn) [Example IIg-1, (cis-1,3)-3-[(3-Fluoro-5-trifluoromethyl-phenylamino)-methyl]-1,3,5,5-tetramethyl-cyclohexanol] | 89 nM | > 3160 nM |
| CN(C)C1CC(C)(C)CC(C)(CNc2cc(F)cc(C(F)(F)F)c2)C1 (stereo not drawn) [Example IIh-1, ((cis-1,5)-5-Dimethylamino-1,3,3-trimethyl-cyclohexylmethyl)-(3-fluoro-5-trifluoromethyl-phenyl)-amine] | 1700 nM | 8390 nM |
| CC1(C)CC(O)CC(C)(C(=O)Nc2cccc(Cl)c2)C1 (stereo not drawn) [Example IVa-3, (cis-1,5)-5-Hydroxy-1,3,3-trimethyl-cyclohexanecarboxylic acid(3-chloro-phenyl)-amide] | 460 nM | 82100 nM |
| CC1(C)CC(O)CC(C)(C(=O)Nc2cccc(C(F)(F)F)c2)C1 (stereo not drawn) [Example IVa-4, (cis-1,5)-5-Hydroxy-1,3,3-trimethyl-cyclohexanecarboxylic acid(3-trifluoromethyl-phenyl)-amide] | 340 nM | 68300 nM |
| CC(C)c1cccc(NC(=O)C2(C)CC(O)CC(C)(C)C2)c1 (stereo not drawn) [Example IVa-5, (cis-1,5)-5-Hydroxy-1,3,3-trimethyl-cyclohexanecarboxylic acid(3-isopropyl-phenyl)-amide] | 1040 nM | 21600 nM |
| CC1(C)CC(O)CC(C)(C(=O)Nc2cccc(OC(F)(F)F)c2)C1 (stereo not drawn) [Example IVa-8, (cis-1,5)-5-Hydroxy-1,3,3-trimethyl-cyclohexanecarboxylic acid(3-trifluoromethoxy-phenyl)-amide] | 861 nM | 60000 nM |
| CC1(C)CC(O)CC(C)(C(=O)Nc2cccc(S(N)(=O)=O)c2)C1 (stereo not drawn) [Example IVa-10, (cis-1,5)-5-Hydroxy-1,3,3-trimethyl-cyclohexanecarboxylic acid(3-sulfamoyl-phenyl)-amide] | 7960 nM | > 100000 nM |
